The supplement of paper PMC4862054
Several values for one entry are separate records, joined by “and”; a condition that tells them apart may be missing. Identical values can stand only once.

Tests used:
Details in all cases: incubation time: 72 h
CAL-148 [1] = assay: drug sensitivity score (DSS), CellTox Green (DSS (AUC-based score)); higher = stronger drug effect (viability inhibition or cytotoxicity); extreme values may be limits of the assay
How it was run: (§1)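 Breast cancer cell lines (20 µl suspension) were seeded into 384-well plates holding compound at 5 concentrations in 10-fold steps over a compound-specific 10,000-fold range, then incubated 72 h. CellTox Green fluorescence (485/520 nm) was read first, then CellTiter-Glo luminescence after 10 min at room temperature. Each plate was normalised to 0.1 % DMSO and a positive kill control. The drug sensitivity score was calculated from the area under the fitted dose-response curve.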

CAL-85-1 [2] = assay: as above
How it was run: as §1

HCC1143 [3] = assay: as above
How it was run: as §1

MDA-MB-453 [4] = assay: as above
How it was run: as §1

MDA-MB-231 [5] = assay: as above
How it was run: as §1

CAL-120 [6] = assay: as above
How it was run: as §1

Hs578T = assay: normalised viability (% of control), CellTiter-Blue; higher = more viable cells (about 100 = DMSO control)
Description: (§2)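 DSRT, CellTiter-Blue viability, 72 h incubation. Signal is normalised to DMSO and benzethonium chloride controls. Value is the normalised response at dose 3.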

CAL-148 [7] = assay: as above
Description: as §2

CAL-85-1 [8] = assay: as above
Description: as §2

HCC1143 [9] = assay: as above
Description: as §2

MDA-MB-468 = assay: as above
Description: as §2

MFM-223 = assay: as above
Description: as §2

SK-BR-3 = assay: as above
Description: as §2

HCC1937 = assay: as above
Description: as §2

HCC1599 = assay: as above
Description: as §2

MDA-MB-453 [10] = assay: as above
Description: as §2

HDQ-P1 [11] = assay: as above
Description: as §2

BT-549 = assay: as above
Description: as §2

CAL-51 [12] = assay: as above
Description: as §2

MDA-MB-231 [13] = assay: as above
Description: as §2

DU-4475 [14] = assay: as above
Description: as §2

CAL-120 [15] = assay: as above
Description: as §2

BT-474 = assay: as above
Description: as §2

MDA-MB-436 = assay: as above
Description: as §2

CAL-148 [16] = assay: as above; remark: listed apart in the source
Description: (§3)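 DSRT, CellTiter-Blue viability, 72 h incubation. Signal is normalised to DMSO and benzethonium chloride controls. Value is the normalised response at dose 7.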

CAL-85-1 [17] = assay: as above; remark: listed apart in the source
Description: as §3

MDA-MB-453 [18] = assay: as above; remark: listed apart in the source
Description: as §3

HDQ-P1 [19] = assay: as above; remark: listed apart in the source
Description: as §3

CAL-51 [20] = assay: as above; remark: listed apart in the source
Description: as §3

DU-4475 [21] = assay: as above; remark: listed apart in the source
Description: as §3

Structure (SMILES)	drug sensitivity score (CAL-85-1 [2])	drug sensitivity score (HCC1143 [3])	drug sensitivity score (MDA-MB-453 [4])	drug sensitivity score (CAL-120 [6])	normalised viability (Hs578T; 100 nM)	normalised viability (CAL-148 [7]; 10 nM)	normalised viability (CAL-85-1 [8]; 10 nM)	normalised viability (HCC1143 [9]; 100 nM)	normalised viability (MDA-MB-468; 100 nM)	normalised viability (MFM-223; 100 nM)	normalised viability (SK-BR-3; 100 nM)	normalised viability (HCC1937; 100 nM)	normalised viability (HCC1599; 100 nM)	normalised viability (MDA-MB-453 [10]; 10 nM)	normalised viability (BT-549; 100 nM)	normalised viability (CAL-51 [12]; 10 nM)	normalised viability (MDA-MB-231 [13]; 100 nM)	normalised viability (DU-4475 [14]; 10 nM)	normalised viability (CAL-120 [15]; 100 nM)	normalised viability (BT-474; 100 nM)	further results
C[C@@H]1C[C@H]2[C@@H]3CCC4=CC(=O)C=C[C@]4(C)[C@@]3(F)[C@@H](O)C[C@]2(C)[C@@]1(O)C(=O)CO [Dexamethasone]	0	0	0	0	97.2%	97.7%	110%	83.4%	119%	93.4%	70.3%	94%	117%	93.3%	88.6%	94.9%	121%	97.2%	68.5%	115%	drug sensitivity score (CAL-148 [1]): 0; drug sensitivity score (MDA-MB-231 [5]): 0; normalised viability (HDQ-P1 [11]; 10 nM): 113%; normalised viability (MDA-MB-436; 100 nM): 94.9%
CC(C)C(=O)Nc1ccc([N+](=O)[O-])c(C(F)(F)F)c1 [Flutamide]	0	0	0	0	92%	99.3%	100%	85.3%	96.9%	90%	93.3%	108%	86.8%	98.8%	85.8%	112%	129%	92.6%	101%	115%	drug sensitivity score (MDA-MB-231 [5]): 0; normalised viability (HDQ-P1 [11]; 10 nM): 113%; normalised viability (MDA-MB-436; 100 nM): 105%
O=NN(CCCl)C(=O)NC1CCCCC1 [Lomustine]	0	0	0	0	94.6%	93.9%	93.8%	93.2%	101%	89.5%	97.5%	87.3%	101%	95.5%	114%	115%	100%	109%	97%	111%	drug sensitivity score (CAL-148 [1]): 0; normalised viability (HDQ-P1 [11]; 10 nM): 113%; normalised viability (MDA-MB-436; 100 nM): 102%
O=C(O)CC[C@H]1CC[C@@](c2cc(F)ccc2F)(S(=O)(=O)c2ccc(Cl)cc2)CC1 [MK-0752]	1.74	0	1.23	0																	drug sensitivity score (MDA-MB-231 [5]): 0; normalised viability (Hs578T; 10 nM): 88.6%; normalised viability (CAL-148 [7]; 1 nM): 107%; normalised viability (CAL-85-1 [8]; 1 nM): 96%; normalised viability (HCC1143 [9]; 10 nM): 98%; normalised viability (MDA-MB-468; 10 nM): 97.6%; normalised viability (MFM-223; 10 nM): 97.1%; normalised viability (SK-BR-3; 10 nM): 93.3%; normalised viability (HCC1937; 10 nM): 88.5%; normalised viability (HCC1599; 10 nM): 106%; normalised viability (MDA-MB-453 [10]; 1 nM): 111%; normalised viability (HDQ-P1 [11]; 1 nM): 96.2%; normalised viability (BT-549; 10 nM): 104%; normalised viability (CAL-51 [12]; 1 nM): 96.3%; normalised viability (MDA-MB-231 [13]; 10 nM): 98%; normalised viability (DU-4475 [14]; 1 nM): 105%; normalised viability (CAL-120 [15]; 10 nM): 95.1%; normalised viability (BT-474; 10 nM): 114%; normalised viability (MDA-MB-436; 10 nM): 103%
Cc1c(C(=O)Nc2ccc(N3C[C@@H](C)O[C@@H](C)C3)nc2)cccc1-c1ccc(OC(F)(F)F)cc1 [NVP-LDE225]					72.5%	108%	102%	92.5%	113%	108%	71.1%	97.2%	102%	110%	97%	99.7%	99%	103%	99.7%	93.3%	normalised viability (HDQ-P1 [11]; 10 nM): 83.5%; normalised viability (MDA-MB-436; 100 nM): 73.2%
CO[C@H](C(=O)[C@@H](O)[C@@H](C)O)[C@@H]1Cc2cc3cc(O[C@H]4C[C@@H](O[C@@H]5C[C@@H](O)[C@H](O)[C@@H](C)O5)[C@H](O)[C@@H](C)O4)c(C)c(O)c3c(O)c2C(=O)[C@H]1O[C@H]1C[C@@H](O[C@@H]2C[C@@H](O)[C@@H](O[C@@H]3C[C@](C)(O)[C@H](O)[C@@H](C)O3)[C@@H](C)O2)[C@H](O)[C@@H](C)O1 [Plicamycin]	1.48	0	1.33	0	13% and 6.55%	82.9% and 99.5%	96.7% and 94.2%	46% and 30.6%	9.16% and 7.26%	71.4% and 61.1%	30.8% and 21.9%	48.3% and 41.4%	63% and 52.6%	111% and 91.1%	20.2% and 17%	98.2% and 109%	34.4% and 28.9%	88.6% and 110%	45% and 34.8%	73.2% and 72.3%	drug sensitivity score (CAL-148 [1]): 0; drug sensitivity score (MDA-MB-231 [5]): 0; normalised viability (MDA-MB-436; 100 nM): 30.2% and 23.4%
CN1CCN(c2nc(C3=C(c4c[nH]c5ccccc45)C(=O)NC3=O)c3ccccc3n2)CC1 [Sotrastaurin]	0	0	0	0	79.9%	116%	104%	133%	96.3%	97.3%	73%	96.3%	95%	93.4%	86.4%	88.2%	99.4%	95%	122%	108%	drug sensitivity score (MDA-MB-231 [5]): 0; normalised viability (HDQ-P1 [11]; 10 nM): 89.3%; normalised viability (MDA-MB-436; 100 nM): 96.3%
CC[C@@H]1C(=O)N(C)c2cnc(Nc3ccc(C(=O)N[C@H]4CC[C@H](N5CCN(CC6CC6)CC5)CC4)cc3OC)nc2N1C(C)C [Volasertib] (100 nM)																					normalised viability (CAL-148 [16]): 23.4%; normalised viability (CAL-85-1 [17]): 42%; normalised viability (MDA-MB-453 [18]): 24.5%; normalised viability (HDQ-P1 [19]): 51.7%; normalised viability (CAL-51 [20]): 15.7%; normalised viability (DU-4475 [21]): 21%
